Measured values: US20240116856A1 (Young BioPharma, LLC, priority 2020, published 2024)
Values joined by “and” are separate entries in the source; they are usually repeats but may differ in a detail not shown here. Equal values may be shown once. Read-outs that look alike come from different tables or passages of the source.

Tests used:
human TRPV3 = target: T1, human TRPV3 (Homo sapiens, UniProt Q8NET8); assay: In vitro Ca2+ flux counter-screen in human TRPV3 overexpressing cells; type: cell-based
T1 construct: expressed in transfected cells; host or cells: overexpressing cells
T1 sequence (Q8NET8 1-790): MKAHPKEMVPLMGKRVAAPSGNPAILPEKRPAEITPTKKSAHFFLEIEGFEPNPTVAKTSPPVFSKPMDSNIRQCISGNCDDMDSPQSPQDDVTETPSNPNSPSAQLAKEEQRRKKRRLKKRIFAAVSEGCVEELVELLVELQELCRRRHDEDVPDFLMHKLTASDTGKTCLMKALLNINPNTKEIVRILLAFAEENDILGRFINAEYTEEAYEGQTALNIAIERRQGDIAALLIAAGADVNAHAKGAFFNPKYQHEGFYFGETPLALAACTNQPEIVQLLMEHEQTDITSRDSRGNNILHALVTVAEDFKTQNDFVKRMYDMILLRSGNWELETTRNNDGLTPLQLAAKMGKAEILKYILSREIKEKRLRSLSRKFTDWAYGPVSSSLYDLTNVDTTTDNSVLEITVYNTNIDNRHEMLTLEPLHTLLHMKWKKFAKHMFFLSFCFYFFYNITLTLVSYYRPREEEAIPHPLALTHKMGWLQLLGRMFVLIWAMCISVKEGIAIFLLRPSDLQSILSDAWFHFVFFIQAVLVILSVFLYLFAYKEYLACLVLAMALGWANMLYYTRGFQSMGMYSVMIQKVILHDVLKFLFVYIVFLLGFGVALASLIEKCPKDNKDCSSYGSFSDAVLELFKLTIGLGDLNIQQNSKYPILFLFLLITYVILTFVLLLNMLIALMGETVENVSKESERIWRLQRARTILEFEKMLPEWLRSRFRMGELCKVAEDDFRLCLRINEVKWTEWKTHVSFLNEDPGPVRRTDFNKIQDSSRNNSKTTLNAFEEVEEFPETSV

human TRPA1 = target: T2, human TRPA1 (Homo sapiens, UniProt O75762); assay: In vitro Ca2+ flux counter-screen in human TRPA1 overexpressing cells; type: cell-based
T2 construct: expressed in transfected cells; host or cells: overexpressing cells
T2 sequence (O75762 whole entry): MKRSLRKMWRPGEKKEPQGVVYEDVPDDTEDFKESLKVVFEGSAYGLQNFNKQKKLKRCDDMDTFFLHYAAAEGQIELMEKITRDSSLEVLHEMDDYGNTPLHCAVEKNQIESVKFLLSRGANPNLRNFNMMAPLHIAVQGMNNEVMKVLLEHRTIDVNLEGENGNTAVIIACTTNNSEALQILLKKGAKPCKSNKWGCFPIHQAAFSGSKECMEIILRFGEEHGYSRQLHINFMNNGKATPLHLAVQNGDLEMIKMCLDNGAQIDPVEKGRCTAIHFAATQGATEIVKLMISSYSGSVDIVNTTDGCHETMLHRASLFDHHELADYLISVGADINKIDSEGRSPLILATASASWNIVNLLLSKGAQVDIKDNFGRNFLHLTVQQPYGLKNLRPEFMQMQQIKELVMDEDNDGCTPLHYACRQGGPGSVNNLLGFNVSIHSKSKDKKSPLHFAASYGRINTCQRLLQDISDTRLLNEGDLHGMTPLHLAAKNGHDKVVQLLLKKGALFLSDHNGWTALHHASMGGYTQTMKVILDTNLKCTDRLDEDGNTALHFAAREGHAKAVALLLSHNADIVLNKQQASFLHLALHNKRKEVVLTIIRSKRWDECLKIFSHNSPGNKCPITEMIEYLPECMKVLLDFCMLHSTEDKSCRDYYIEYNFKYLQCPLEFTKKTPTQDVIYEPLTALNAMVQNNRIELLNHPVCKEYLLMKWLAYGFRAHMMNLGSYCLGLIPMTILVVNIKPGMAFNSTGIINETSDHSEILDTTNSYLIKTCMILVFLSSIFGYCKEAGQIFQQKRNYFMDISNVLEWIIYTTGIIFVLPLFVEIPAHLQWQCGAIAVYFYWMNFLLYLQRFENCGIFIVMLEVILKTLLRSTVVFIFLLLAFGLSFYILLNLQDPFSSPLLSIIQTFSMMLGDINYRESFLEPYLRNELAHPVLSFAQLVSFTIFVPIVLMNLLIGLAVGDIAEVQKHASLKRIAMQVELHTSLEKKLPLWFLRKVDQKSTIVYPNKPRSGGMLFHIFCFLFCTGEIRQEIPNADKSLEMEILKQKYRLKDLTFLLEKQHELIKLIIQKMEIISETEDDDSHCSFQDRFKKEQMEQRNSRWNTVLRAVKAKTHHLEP

MDA-MB-231 = assay: Human cancer cell growth inhibition assay (ATP assay), MDA-MB-231; type: cell-based; conditions: Homo sapiens, MDA-MB-231, 96 h
NCI-H460 = assay: Human cancer cell growth inhibition assay (ATP assay), NCI-H460; type: cell-based; conditions: Homo sapiens, NCI-H460, 96 h
OVCAR-8 = assay: Human cancer cell growth inhibition assay (ATP assay), OVCAR-8; type: cell-based; conditions: Homo sapiens, OVCAR-8, 96 h
MDA-MB-231 cell invasion = assay: Cancer cell invasion assay, MDA-MB-231; type: cell-based, human; conditions: 24 h
Experimental: A cancer cell invasion assay was developed based on literature protocols (Methods 2005, 37, 208; EMBO J 2002, 21, 6289; Cellular Signalling 2012, 24, 1276.). Membrane matrix gel (Cat #A1413201, ThermoFisher) was diluted in ice-cold, serum-free RPMI 1640 Medium (Cat #31800022, ThermoFisher) at a concentration of 0.5-0.6 mg/mL. Then it was added to the upper compartment (100 μL per cup) of millicell inserts (Cat #PI8P01250, ThermoFisher) placed in a 24-well plate (Part no. 229123, Celltreat). The plate was incubated at 37° C. for 2 h to allow the liquid gel to solidify. RPMI 1640 Medium supplemented with 10% FBS (300 μL) was added to the well of the plate (lower compartment) as attractant, then DMSO or compounds were added. Human cancer cells (1×10^5 cells in 200 μL of RPMI 1640 Medium) were added to the upper compartment of the insert, then DMSO or compounds were added. After the plate was incubated at 37° C. for 24 h, the cells were fixed on the lower side of the insert membrane with 4% formaldehyde and stained with 1% crystal violet (Part no. IS12146, Innovating Science). The invaded cells on the lower side of the filter were counted under an inverted microscope equipped with either a 4× or a 10× objective (FIG. 11). The cell numbers from 5 random views were averaged and plotted as percentage against the DMSO control (FIG. 12A).

human TRPV1 = target: T3, human TRPV1 (Homo sapiens, UniProt Q8NER1); assay: In vitro Ca2+ flux assay in human TRPV1 transfected HEK 293 cells; type: cell-based; conditions: Means±SEM from three independent experiments
T3 construct: DYK (FLAG) tag from vector pcDNA3.1+/C-(K)DYK (C); host or cells: FreeStyle 293-F cells (HEK 293), transient transfection
T3 sequence (Q8NER1 whole entry): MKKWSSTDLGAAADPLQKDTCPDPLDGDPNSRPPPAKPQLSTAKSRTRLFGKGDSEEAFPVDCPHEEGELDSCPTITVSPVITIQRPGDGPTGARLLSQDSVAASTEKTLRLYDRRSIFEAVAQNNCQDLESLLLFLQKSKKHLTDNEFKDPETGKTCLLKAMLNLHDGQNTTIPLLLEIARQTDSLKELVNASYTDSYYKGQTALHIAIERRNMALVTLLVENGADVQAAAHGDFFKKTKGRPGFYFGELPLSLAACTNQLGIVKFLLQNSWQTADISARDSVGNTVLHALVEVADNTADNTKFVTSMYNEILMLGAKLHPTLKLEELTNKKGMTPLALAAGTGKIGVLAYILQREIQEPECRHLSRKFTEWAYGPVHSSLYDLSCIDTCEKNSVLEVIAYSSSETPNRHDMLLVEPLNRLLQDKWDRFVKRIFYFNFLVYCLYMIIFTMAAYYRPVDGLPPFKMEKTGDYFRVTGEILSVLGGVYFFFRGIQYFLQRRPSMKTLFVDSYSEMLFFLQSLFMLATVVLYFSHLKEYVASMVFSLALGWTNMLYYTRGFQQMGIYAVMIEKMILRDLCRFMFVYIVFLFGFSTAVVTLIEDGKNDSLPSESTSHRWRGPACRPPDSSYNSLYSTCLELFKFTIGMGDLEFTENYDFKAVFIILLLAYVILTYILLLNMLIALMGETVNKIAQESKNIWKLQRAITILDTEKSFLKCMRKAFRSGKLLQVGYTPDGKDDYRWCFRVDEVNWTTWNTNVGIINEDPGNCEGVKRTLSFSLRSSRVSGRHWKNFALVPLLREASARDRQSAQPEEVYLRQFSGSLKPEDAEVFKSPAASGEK

[1] = system: Src protein activation in MDA-MB-231 cells; assay: Cancer cell immunocytochemistry assay, Phospho-Src (Y416), MDA-MB-231; type: cell-based, human; conditions: at about 40% of IC50 concentration from cell growth inhibition assay, 4 h
Experimental: Human cancer cells (15,000 cells/well) in 96 well half area microplate (Cat #3882, Corning) were incubated overnight at 37° C., then compounds or DMSO control were added to the cell culture and incubated at 37° C. for 1-6 h. The cells were sequentially fixed with 4% formalin, permeabilized with 0.5% Triton X-100, blocked with 5% BSA in PBS, incubated with Human Phospho-Src (Y416) Antibody (Cat #MAB2685, R&D Systems) at rt for 2 h, incubated with the secondary antibody Goat Ant-Rabbit IgG H&L (Alexa Fluor 488) (Cat #ab150077, abeam) for 45 min, and incubated with DAPI (Cat #D9542, Sigma-Aldrich) for 5 min. Finally, the cells were washed and covered with PBS. The cell images were visualized on an inverted fluorescence microscope (Leica DMIL Fluorescent Inverted Microscope with Digital Camera, Leica Microsystems). Pictures were taken [FIGS. 14A-C. Green: Human Phospho-Src (Y416), the activated form of the Src protein; Blue: DAPI (stain nucleus of cell)]. The fluorescence intensity values from 5 random cells were averaged, subtracted by the background value (area between cells) and the blank value [the blank control without the Human Phospho-Src (Y416) Antibody], then plotted as percentage against the DMSO control to indicate the effects of compound treatment on the cellular Src kinase phosphorylation levels in the cancer cells (FIGS. 15A-D).

[2] = counter-screen, read-out: TRPV3 EC50
[3] = counter-screen, read-out: TRPA1 EC50
[4] = 4 days, Means±SEM from three independent experiments, read-out: MDA-MB-231, IC50
[5] = 4 days, Means±SEM from three independent experiments, read-out: NCl-H460, IC50
[6] = 4 days, Means±SEM from three independent experiments, read-out: OVCAR-8, IC50

Structure (SMILES)	EC50 (human TRPV3; [2]) [µM]	EC50 (human TRPA1; [3]) [µM]	IC50 (MDA-MB-231; [4]) [µM]	IC50 (NCI-H460; [5]) [µM]	IC50 (OVCAR-8; [6]) [µM]	inhibition of MDA-MB-231 cell invasion (MDA-MB-231 cell invasion)	EC50 (human TRPV1; read-out: TRPV1 EC50)	IC50 (MDA-MB-231; read-out: MDA-MB-231, IC50, μM) [µM]	IC50 (NCI-H460; read-out: NCl-H460, IC50, μM) [µM]	IC50 (OVCAR-8; read-out: OVCAR-8, IC50, μM) [µM]	cellular Src kinase phosphorylation levels [1]	EC50 (human TRPV1; TRPV1 EC50 (μM)) [µM]	EC50 (human TRPV3) [µM]	EC50 (human TRPA1) [µM]
CNc1ccc(CNC(=O)CCCC/C=C/C(C)C)cc1OC [YB-8]	> 10	> 10	311 ± 31	250 ± 23	500 ± 81	dose-dependently inhibited	–	–	–	–	–	–	–	–
COc1cc(CC(=O)N/C=C/c2ccc(C(F)(F)F)cc2)ccc1NC(=O)CCCC/C=C/C(C)C [YB-29]	> 10	> 10	–	–	–	–	> 10 µM	–	–	–	–	–	–	–
COc1cc(CC(=O)N/C=C/c2ccc(-c3ccccc3)cc2)ccc1O [YB-12]	> 10	> 10	136 ± 29	61 ± 21	129 ± 20	dose-dependently inhibited	–	–	–	–	–	–	–	–
COc1cc(CC2=NCC(c3ccc(C(F)(F)F)cc3)O2)ccc1O (stereo not shown) [YB-4]	> 10	> 10	469 ± 130	270 ± 45	300 ± 60	dose-dependently inhibited	–	–	–	–	–	–	–	–
COc1cc(CC(=O)N/C=C/c2ccc(C(F)(F)F)cc2)ccc1N [YB-17]	> 10	> 10	–	–	–	–	0.34 to 1.1 µM	140 ± 22	139 ± 19	161 ± 26	–	–	–	–
COc1cc(CC(=O)N/C=C/c2cccc(C(F)(F)F)c2)ccc1O [YB-15]	> 10	> 10	250 ± 38	> 300	101 ± 17	–	< 0.1 µM and 0.012 to 0.048 µM	–	–	–	–	–	–	–
COc1cc(CC(=O)N/C=C/c2ccc(Cl)cc2)ccc1O [YB-10]	> 10	> 10	115 ± 28	73 ± 18	34	dose-dependently inhibited	< 0.1 µM and 0.012 to 0.048 µM	–	–	–	–	–	–	–
COc1cc(CNC(=O)CCCC/C=C/C(C)C)ccc1NS(C)(=O)=O [YB-6]	> 10	> 10	867 ± 72	400 ± 46	400 ± 51	dose-dependently inhibited	–	–	–	–	–	–	–	–
COc1cc(CC(=O)N/C=C/c2ccc(C#N)cc2)ccc1O [YB-23]	> 10	> 10	90 ± 12	88	73	dose-dependently inhibited	–	–	–	–	significantly reduced the cellular Src kinase phosphorylation levels	–	–	–
COc1cc(CC2=NCC(c3ccccc3)O2)ccc1O (stereo not shown) [YB-3]	> 10	> 10	430 ± 90	320 ± 86	500 ± 120	dose-dependently inhibited	–	–	–	–	–	–	–	–
COc1cc(CC(=O)N/C=C/c2ccc(C(F)(F)F)cc2)ccc1OC(=O)N1CCCCC1CN(C)C(=O)OC(C)(C)C (stereo not shown) [YB-31]	–	–	–	–	–	–	–	–	–	–	–	> 10	> 10	> 10
COc1ccc(/C=C/NC(=O)Cc2ccc(N)c(OC)c2)cc1 [YB-20]	> 10	> 10	86 ± 14	279 ± 42	283 ± 38	–	–	–	–	–	–	–	–	–
COc1cc(CNC(=O)CCCC/C=C/C(C)C)ccc1N(S(C)(=O)=O)S(C)(=O)=O [YB-7]	> 10	> 10	386 ± 107	200 ± 49	310 ± 45	dose-dependently inhibited	–	–	–	–	–	–	–	–
COc1cc(CC(=O)N/C=C/c2cccc(C(F)(F)F)c2)ccc1N [YB-21]	> 10	> 10	101 ± 20	103 ± 13	65 ± 14	dose-dependently inhibited	0.34 to 1.1 µM	–	–	–	–	–	–	–
COc1cc(CC2=NCC(c3ccc(-c4ccccc4)cc3)O2)ccc1O (stereo not shown) [YB-5]	> 10	> 10	542 ± 101	210 ± 48	150 ± 42	dose-dependently inhibited	–	–	–	–	–	–	–	–
COc1ccc(/C=C/NC(=O)Cc2ccc(O)c(OC)c2)cc1 [YB-14]	> 10	> 10	300 ± 46	> 300	500 ± 57	–	–	–	–	–	–	–	–	–
COc1cc(CC(=O)N/C=C/c2ccc(-c3ccccc3)cc2)ccc1N [YB-19]	> 10	> 10	103 ± 18	117 ± 16	100 ± 15	–	–	–	–	–	–	–	–	–
COc1cc(CC(=O)N/C=C/c2cc(C(F)(F)F)cc(C(F)(F)F)c2)ccc1O [YB-22]	> 10	> 10	74	84 ± 12	58	dose-dependently inhibited	–	–	–	–	significantly reduced the cellular Src kinase phosphorylation levels	–	–	–
COc1cc(CC(=O)N/C=C/c2ccc(Cl)cc2)ccc1N [YB-18]	> 10	> 10	69 ± 16	133 ± 18	200 ± 21	–	0.34 to 1.1 µM	–	–	–	–	–	–	–
COc1cc(CC(=O)N/C=C/c2ccc(C(F)(F)F)cc2)ccc1NC(C)=O [YB-30]	> 10	> 10	–	–	–	–	8.8 ± 0.9 µM	–	–	–	–	–	–	–
COCCOCCOCCC(=O)Nc1ccc(CNC(=O)CCCC/C=C/C(C)C)cc1OC [YB-13]	> 10	> 10	107 ± 7.5	100 ± 11	200 ± 16	dose-dependently inhibited	–	–	–	–	–	–	–	–
CNCC1CCCCN1C(=O)Oc1ccc(CC(=O)N/C=C/c2ccc(C(F)(F)F)cc2)cc1OC (stereo not shown) [YB-35]	–	–	–	–	–	–	–	–	–	–	–	0.71 ± 0.14	> 10	> 10
